In ChEMBL document CHEMBL6083262, “Stereorandomized Oncocins with Preserved Ribosome Binding and Antibacterial Activity” (J Med Chem, 2024):
Values after ≈ are worked out from the molar mass of the structure shown. Active and inactive are the calls of the source. The rule behind the calls is not given here. Non-standard residues stand in square brackets, D forms with d. Residues, ends and D or L forms follow the SMILES beside them. ξ: configuration not given here. ξY = NC(Cc1ccc(O)cc1)C(=O)O; ξR = N=C(N)NCCCC(N)C(=O)O; ξN = NC(=O)CC(N)C(=O)O; Nleu = CC(C)CNCC(=O)O; ξI = CCC(C)C(N)C(=O)O; Nlys = NCCCCNCC(=O)O; ξP = O=C(O)C1CCCN1

Assays:
Klebsiella pneumoniae [1] = experiment: Bacteriostatic activity against Klebsiella pneumoniae at 8 times MIC in full muller hinton medium by Time-kill assay; type: functional, organism-based
Escherichia coli [2] = experiment: Bacteriostatic activity against Escherichia coli assessed as detachment of inner membrane from outer membrane by measuring a large void at 8 times MIC in full muller hinton medium by transmission electron microscopic analysis; type: functional, organism-based
Escherichia coli [3] = experiment: Bacteriostatic activity against Escherichia coli assessed as membrane perturbation at 8 times MIC in full muller hinton medium by transmission electron microscopic analysis; type: functional, organism-based
Escherichia coli [4] = experiment: Bacteriostatic activity against Escherichia coli at 8 times MIC in full muller hinton medium by Time-kill assay; type: functional, organism-based
Escherichia coli [5] = experiment: Bacteriostatic activity against Escherichia coli assessed as small intracellular vesicles at 8 times MIC in full muller hinton medium by transmission electron microscopic analysis; type: functional, organism-based
Klebsiella pneumoniae [6] = experiment: Bacteriostatic activity against Klebsiella pneumoniae assessed as detachment of inner membrane from outer membrane by measuring a large void at 8 times MIC in full muller hinton medium by transmission electron microscopic analysis; type: functional, organism-based
Klebsiella pneumoniae [7] = experiment: Bacteriostatic activity against Klebsiella pneumoniae assessed as membrane perturbation at 8 times MIC in full muller hinton medium by transmission electron microscopic analysis; type: functional, organism-based
Klebsiella pneumoniae [8] = experiment: Bacteriostatic activity against Klebsiella pneumoniae assessed as small intracellular vesicles at 8 times MIC in full muller hinton medium by transmission electron microscopic analysis; type: functional, organism-based
Staphylococcus aureus [9] = experiment: Antimicrobial activity against methicillin-resistant Staphylococcus aureus COL incubated for 16 to 20 hrs in full muller hinton medium by broth microdilution method; type: functional; conditions: time 16-20 hrs
Escherichia coli [10] = experiment: Antimicrobial activity against Escherichia coli W3110 incubated for 16 to 20 hrs in 12.5 % muller hinton medium by broth microdilution method; type: functional; conditions: time 16-20 hrs
Pseudomonas aeruginosa [11] = experiment: Antibacterial activity against multidrug-resistant Pseudomonas aeruginosa PA14 4.13 harboring phoQ mutant incubated for 16 to 20 hrs in full muller hinton medium by broth microdilution method; type: functional; conditions: time 16-20 hrs
Klebsiella pneumoniae [12] = experiment: Antimicrobial activity against Klebsiella pneumoniae NCTC 418 incubated for 16 to 20 hrs in full muller hinton medium by broth microdilution method; type: functional; conditions: time 16-20 hrs
Klebsiella pneumoniae [13] = experiment: Antibacterial activity against multidrug-resistant Klebsiella pneumoniae clinical isolate OXA-48 incubated for 16 to 20 hrs in 12.5 % muller hinton medium by broth microdilution method; type: functional; conditions: time 16-20 hrs
Pseudomonas aeruginosa [14] = experiment: Antibacterial activity against multidrug-resistant Pseudomonas aeruginosa PA14 incubated for 16 to 20 hrs in full muller hinton medium by broth microdilution method; type: functional; conditions: time 16-20 hrs
Acinetobacter baumannii = experiment: Antimicrobial activity against Acinetobacter baumannii ATCC 19606 incubated for 16 to 20 hrs in full muller hinton medium by broth microdilution method; type: functional; conditions: time 16-20 hrs
Pseudomonas aeruginosa [15] = experiment: Antibacterial activity against multidrug-resistant Pseudomonas aeruginosa PA14 4.18 harboring pmrB mutant incubated for 16 to 20 hrs in full muller hinton medium by broth microdilution method; type: functional; conditions: time 16-20 hrs
Enterobacter cloacae = experiment: Antibacterial activity against multidrug-resistant Enterobacter cloacae incubated for 16 to 20 hrs in full muller hinton medium by broth microdilution method; type: functional; conditions: time 16-20 hrs
Klebsiella pneumoniae [16] = experiment: Antimicrobial activity against Klebsiella pneumoniae NCTC 418 incubated for 16 to 20 hrs in 12.5 % muller hinton medium by broth microdilution method; type: functional; conditions: time 16-20 hrs
Pseudomonas aeruginosa [17] = experiment: Antibacterial activity against multidrug-resistant Pseudomonas aeruginosa clinical isolate ZEM9A incubated for 16 to 20 hrs in full muller hinton medium by broth microdilution method; type: functional; conditions: time 16-20 hrs
Klebsiella pneumoniae [18] = experiment: Antibacterial activity against multidrug-resistant Klebsiella pneumoniae clinical isolate OXA-48 incubated for 16 to 20 hrs in full muller hinton medium by broth microdilution method; type: functional; conditions: time 16-20 hrs
Pseudomonas aeruginosa [19] = experiment: Antibacterial activity against multidrug-resistant Pseudomonas aeruginosa clinical isolate ZEM-1A incubated for 16 to 20 hrs in full muller hinton medium by broth microdilution method; type: functional; conditions: time 16-20 hrs
Pseudomonas aeruginosa [20] = experiment: Antibacterial activity against multidrug-resistant Pseudomonas aeruginosa PA14 2P4 harboring pmrB mutant incubated for 16 to 20 hrs in full muller hinton medium by broth microdilution method; type: functional; conditions: time 16-20 hrs
[21] = Hemolytic activity in human RBC incubated for 4 hrs; type: toxicity, cell-based; conditions: erythrocyte
rRNA = experiment: Binding affinity to [gamma32 P-ATP] labeled Escherichia coli MG1655 23S ribosomal RNA (5-CCCTTGGGACCTACTTC-3') at U2506 position assessed as increase in band intensity at 1 uM incubated for 2.5 hrs in full muller hinton medium by CMCT based gel electrophoresis; type: nucleic-acid assay
Escherichia coli [22] = experiment: Antimicrobial activity against Escherichia coli W3110 incubated for 16 to 20 hrs in full muller hinton medium by broth microdilution method; type: functional; conditions: time 16-20 hrs
Staphylococcus aureus [23] = experiment: Antimicrobial activity against methicillin-resistant Staphylococcus aureus COL incubated for 16 to 20 hrs in 12.5 % muller hinton medium by broth microdilution method; type: functional; conditions: time 16-20 hrs
Pseudomonas aeruginosa [24] = experiment: Antimicrobial activity against Pseudomonas aeruginosa PAO1 incubated for 16 to 20 hrs in full muller hinton medium by broth microdilution method; type: functional; conditions: time 16-20 hrs

Compound | Activity (Klebsiella pneumoniae [1]) | Activity (Escherichia coli [2]) | Activity (Escherichia coli [3]) | Activity (Escherichia coli [4]) | Activity (Escherichia coli [5]) | Activity (Klebsiella pneumoniae [6]) | Activity (Klebsiella pneumoniae [7]) | Activity (Klebsiella pneumoniae [8]) | MIC (Staphylococcus aureus [9]) | MIC (Escherichia coli [10]) | MIC (Pseudomonas aeruginosa [11]) | MIC (Klebsiella pneumoniae [12]) | MIC (Pseudomonas aeruginosa [14]) | MIC (Pseudomonas aeruginosa [15]) | MIC (Pseudomonas aeruginosa [17]) | MIC (Pseudomonas aeruginosa [20]) | MHC [21] | also measured
CC[C@H]1OC(=O)[C@H](C)[C@@H](O[C@H]2C[C@@](C)(OC)[C@@H](O)[C@H](C)O2)[C@H](C)[C@@H](O[C@@H]2O[C@H](C)C[C@H](N(C)C)[C@H]2O)[C@](C)(O)C[C@@H](C)CN(C)[C@H](C)[C@@H](O)[C@]1(C)O | Active | Active | Active; Few Membrane Perturbation Observed | Active | Active | Active | Active; Few Membrane Perturbation Observed | Active | – | – | – | – | – | – | – | – | – | –
CC(C)C[C@H](NC(=O)CN(CC(C)C)C(=O)[C@H](CC(C)C)NC(=O)CN(CCCCN)C(=O)[C@H](CC(C)C)NC(=O)CN(CC(C)C)C(=O)[C@H](CCCCN)NC(=O)CN(CC(C)C)C(=O)[C@H](CC(C)C)NC(=O)CN(CCCCN)C(=O)[C@@H](N)CCCCN)C(N)=O (H-K[Nlys]L[Nleu]K[Nleu]L[Nlys]L[Nleu]L-NH2) | – | – | – | – | – | – | – | – | > 32 µg/mL | 2 µg/mL (≈ 1.51 µM) | > 32 µg/mL | > 32 µg/mL | > 32 µg/mL | > 32 µg/mL | > 64 µg/mL | > 64 µg/mL | – | MIC (Klebsiella pneumoniae [13]): 64 µg/mL (≈ 48.4 µM); MIC (Acinetobacter baumannii): > 32 µg/mL; MIC (Enterobacter cloacae): 64 µg/mL (≈ 48.4 µM); MIC (Klebsiella pneumoniae [16]): > 32 µg/mL; MIC (Klebsiella pneumoniae [18]): > 64 µg/mL; MIC (Pseudomonas aeruginosa [19]): > 64 µg/mL
CC[C@H](C)[C@H](NC(=O)[C@@H](CCCNC(=N)N)NC(=O)[C@H](CCCNC(=N)N)NC(=O)[C@@H]1CCCN1C(=O)[C@@H]1CCCN1C(=O)[C@H](CCCNC(=N)N)NC(=O)[C@@H]1CCCN1C(=O)[C@H](CCCNC(=N)N)NC(=O)[C@@H]1CCCN1C(=O)[C@H](CC(C)C)NC(=O)[C@H](Cc1ccc(O)cc1)NC(=O)[C@@H]1CCCN1C(=O)[C@@H]1CCCN1C(=O)[C@H](CCCCN)NC(=O)[C@H](CC(=O)O)NC(=O)[C@@H](N)C(C)C)C(=O)N[C@@H](Cc1ccc(O)cc1)C(=O)N[C@@H](CC(N)=O)C(=O)N[C@H](CCCNC(=N)N)C(N)=O (H-VDKPPYLPRPRPPR[dR]IYN[dR]-NH2) | – | – | – | – | – | – | – | – | > 64 µg/mL | – | > 32 µg/mL | – | > 32 µg/mL | > 32 µg/mL | > 64 µg/mL | > 64 µg/mL | > 1000 µg/mL | –
CC[C@@H](C)[C@@H](NC(=O)[C@@H](CCCNC(=N)N)NC(=O)[C@H](CCCNC(=N)N)NC(=O)[C@@H]1CCCN1C(=O)[C@@H]1CCCN1C(=O)[C@H](CCCNC(=N)N)NC(=O)[C@@H]1CCCN1C(=O)[C@H](CCCNC(=N)N)NC(=O)[C@@H]1CCCN1C(=O)[C@H](CC(C)C)NC(=O)[C@H](Cc1ccc(O)cc1)NC(=O)[C@@H]1CCCN1C(=O)[C@@H]1CCCN1C(=O)[C@H](CCCCN)NC(=O)[C@H](CC(=O)O)NC(=O)[C@@H](N)C(C)C)C(=O)N[C@H](Cc1ccc(O)cc1)C(=O)N[C@H](CC(N)=O)C(=O)N[C@H](CCCNC(=N)N)C(N)=O (H-VDKPPYLPRPRPPR[dR][dI][dY][dN][dR]-NH2) | Active | Active | Active; Few Membrane Perturbation Observed | Active | Active | Active | Active; Few Membrane Perturbation Observed | Active | > 64 µg/mL | – | – | – | > 64 µg/mL | – | > 64 µg/mL | > 64 µg/mL | > 1000 µg/mL | Activity (rRNA): Active
CCC(C)C(NC(=O)C(CCCNC(=N)N)NC(=O)C(CCCNC(=N)N)NC(=O)[C@@H]1CCCN1C(=O)[C@@H]1CCCN1C(=O)[C@H](CCCNC(=N)N)NC(=O)[C@@H]1CCCN1C(=O)[C@H](CCCNC(=N)N)NC(=O)[C@@H]1CCCN1C(=O)[C@H](CC(C)C)NC(=O)[C@H](Cc1ccc(O)cc1)NC(=O)[C@@H]1CCCN1C(=O)[C@@H]1CCCN1C(=O)[C@H](CCCCN)NC(=O)[C@H](CC(=O)O)NC(=O)[C@@H](N)C(C)C)C(=O)NC(Cc1ccc(O)cc1)C(=O)NC(CC(N)=O)C(=O)NC(CCCNC(=N)N)C(N)=O (stereo not given in full) (H-VDKPPYLPRPRPP[ξR][ξR][ξI][ξY][ξN][ξR]-NH2) | – | – | – | – | – | – | – | – | > 64 µg/mL | 1 µg/mL (≈ 0.418 µM) | – | 4 µg/mL (≈ 1.67 µM) | – | – | – | – | > 1000 µg/mL | MIC (Escherichia coli [22]): 8 µg/mL (≈ 3.35 µM); MIC (Staphylococcus aureus [23]): > 16 µg/mL
CCC(C)C(NC(=O)C(CCCNC(=N)N)NC(=O)C(CCCNC(=N)N)NC(=O)C1CCCN1C(=O)[C@@H]1CCCN1C(=O)[C@H](CCCNC(=N)N)NC(=O)[C@@H]1CCCN1C(=O)[C@H](CCCNC(=N)N)NC(=O)[C@@H]1CCCN1C(=O)[C@H](CC(C)C)NC(=O)[C@H](Cc1ccc(O)cc1)NC(=O)[C@@H]1CCCN1C(=O)[C@@H]1CCCN1C(=O)[C@H](CCCCN)NC(=O)[C@H](CC(=O)O)NC(=O)[C@@H](N)C(C)C)C(=O)NC(Cc1ccc(O)cc1)C(=O)NC(CC(N)=O)C(=O)NC(CCCNC(=N)N)C(N)=O (stereo not given in full) (H-VDKPPYLPRPRP[ξP][ξR][ξR][ξI][ξY][ξN][ξR]-NH2) | – | – | – | – | – | – | – | – | > 64 µg/mL | 1 µg/mL (≈ 0.418 µM) | – | 4 µg/mL (≈ 1.67 µM) | – | – | – | – | > 1000 µg/mL | MIC (Escherichia coli [22]): 8 µg/mL (≈ 3.35 µM); MIC (Staphylococcus aureus [23]): > 16 µg/mL
CC(C)C[C@H](NC(=O)[C@H](CC(C)C)NC(=O)[C@H](CC(C)C)NC(=O)[C@@H](CCCCN)NC(=O)[C@H](CC(C)C)NC(=O)[C@H](CC(C)C)NC(=O)[C@@H](CCCCN)NC(=O)[C@H](CC(C)C)NC(=O)[C@H](CC(C)C)NC(=O)[C@@H](CCCCN)NC(=O)[C@H](N)CCCCN)C(N)=O (H-[dK][dK]LL[dK]LL[dK]LLL-NH2) | Active | Active | Active; Few Membrane Perturbation Observed | Active | Active | Active | Active; Few Membrane Perturbation Observed | Active | – | – | – | 8 µg/mL (≈ 6.05 µM) | – | – | – | – | 1000 µg/mL | MIC (Acinetobacter baumannii): 2.4 µg/mL (≈ 1.82 µM); MIC (Pseudomonas aeruginosa [24]): 8 µg/mL (≈ 6.05 µM)
H-VDKPPYLPRPRPPRRIYNR-NH2 [ONCOCIN] | Active | Active | Active; Few Membrane Perturbation Observed | Active | Active | Active | Active; Few Membrane Perturbation Observed | Active | > 64 µg/mL | – | > 64 µg/mL | – | > 64 µg/mL | > 64 µg/mL | > 64 µg/mL | > 64 µg/mL | > 1000 µg/mL | MIC (Pseudomonas aeruginosa [24]): > 64 µg/mL; MIC (Pseudomonas aeruginosa [19]): > 64 µg/mL; Activity (rRNA): Active
